Measurements published in patent US20100016319A1, “ARYLMETHYLENE UREA DERIVATIVE AND USE THEREOF” (TORAY INDUSTRIES, INC. a corporation of Japan, priority 2005, published 2010).
pIC50: −log10 of the molar value.

Tests used:
[1] = tested on: TNFα production in human whole blood; test: Inhibitory activity on LPS-induced TNFα production in human whole blood; assay type: cell-based; conditions: LPS stimulation, 37° C., 5 hours
Description: Inhibitory activities of the arylmethylene urea derivatives according to the present invention to the production of TNFα induced by stimulation with a lipopolysaccharide (LPS) were investigated using human whole blood.
After mixing each of the compounds of the present invention with human blood in a 96-well flat-bottom plate, the lipopolysaccharide (LPS) was added and the mixture was allowed to react at 37° C. for 5 hours. After the reaction, the resulting mixture was centrifuged at room temperature for 15 minutes, and supernatant of the resultant was recovered. For the quantification of TNFα in the supernatant, human cytokine kit (CIS biointernational) was used.

[2] = tested on: rhythmic bladder contractions; test: Rhythmic bladder contractions model in anesthetized rats; assay type: in vivo, SD rats; conditions: i.v., 10 mg/kg; 10 minutes before and after administration; FIG. 2
Excerpt: Using anesthetized rat rhythmic bladder contractions model, the inhibitory effect of the arylmethylene urea derivatives of the present invention on the detrusor hyperreflexia was investigated.
Female SD rats were anesthetized with an intraperitoneal injection of urethane (1.0 g/kg). A polyethylene tube was inserted from external urethral orifice into the bladder and the tube was fixed by ligating. The other end of the tube was equipped with a three-necked cock, and one of the necks thereof was connected to a pressure transducer for the measurement of intravesical pressure and the other neck was connected to a syringe for the infusion of physiological saline into the bladder. Thirty minutes after the surgery was completed, physiological saline in appropriate volume was infused via the tube in order to induce rhythmic bladder contractions. After stable rhythmic bladder contractions were obtained, a solution of each test compound or the solvent thereof was administered from a caudal vein in a volume of 0.5 mL/kg, and the effect on the frequency of bladder contractions was investigated. As the test compounds, the compounds of Examples 2 and 9 were used.
In each of the figures, the ordinate indicates the number of rhythmic bladder contractions for 10 minutes before and after administration of the compound.

DSS-induced colitis = test: Dextran sulfate sodium (DSS)-induced colitis model of mice, rectal bleeding score; assay type: in vivo, BALB/c mice; conditions: 30 mg/kg orally every day from Day 27 to Day 31; for amelioration of symptoms / improvement in the rectal bleeding score (in words): Day 32; for rectal bleeding score on Day 32 (0: occult blood-negative, 2: occult blood-positive, 4: apparent bleeding): female BALB/c mice, 3 w/v % DSS
Description: (§1) Female BALB/c mice (Japan SLC) of 7 to 9 weeks old were allowed to freely drink 3 w/v % dextran sulfate sodium (DSS) for 5 to 7 days, and then to freely drink sterilized distilled water for 5 days. This procedure was repeated 3 times to induce colitis. The uninduced (background) group was allowed to freely drink sterilized distilled water. The compound described in Example 2 was orally administered to the mice at a dose of 30 mg/kg every day from Day 27 to Day 31 counted from the start of the test, and rectal bleeding was scored (0: occult blood-negative, 2: occult blood-positive, 4: apparent bleeding) by using the method described by Murthy et al (see, for example, Dig Dis Sci., 38, 1722 (1993)).
(§2) On the other hand, the same test as in Example 452 was repeated except that 1-(4-(pyridin-4-yloxy)benzyl)-3-(3-t-butylisoxazol-5-yl)urea (the structural formula thereof is shown below) which is a compound included in WO 04/037789 was used in place of the compound of Example 2. The score on Day 32 (the last day of the test) of the colitis-uninduced group was 0, while the score of the colitis-induced group rose to 1.2±0.2.
as §1, with “Example 10” for “Example 2”
as §2, with “Example 453” for “Example 452”, “that 1-(4-(pyridin-4-yloxy)benzyl)-3-([…])urea” for “that 1-(4-(pyridin-4-yloxy)benzyl)-3-(3-t-butylisoxazol-5-yl)urea”, “Example 10.” for “Example 2.”

SMILES | pIC50 [1] | other results
Cc1ccc(-n2nc(C(C)(C)C)cc2NC(=O)NCc2ccccc2Oc2cc(N3CCOCC3)ncn2)cc1 [Example 5, 1-(2-(6-morpholinopyrimidin-4-yloxy)benzyl)-3-(3-t-butyl-1-p-tolyl-1H-pyrazol-5-yl)urea] | 6.07 | melting point: 128.5 °C
Cc1ccc(-n2nc(CC(C)(C)C)cc2NC(=O)NCc2ccccc2Oc2ccnc(N3CCOCC3)n2)cc1 [Example 28, 1-(2-(2-morpholinopyrimidin-4-yloxy)benzyl)-3-(3-neopentyl-1-p-tolyl-1H-pyrazol-5-yl)urea] | 6.29 | 
Cc1ccc(-n2nc(C(C)(C)C)cc2NC(=O)NCc2ccccc2Oc2ccnc(N3CCCC(C(N)=O)C3)n2)cc1 (stereo not shown) [Example 13, 1-(4-(2-(((((3-t-butyl-1-p-tolyl-1H-pyrazol-5-yl)amino)carbonyl)amino)methyl)phenoxy)pyrimidin-2-yl)-piperidin-3-carboxylic amide] | 6.30 | 
COc1cc(-n2nc(C(C)(C)C)cc2NC(=O)NCc2ccccc2Oc2ccnc(N3CCOCC3)n2)ccc1C [Example 56, 1-(2-(2-morpholinopyrimidin-4-yloxy)benzyl)-3-(3-t-butyl-1-(3-methoxy-4-methylphenyl)-1H-pyrazol-5-yl)urea] | 6.31 | 
CC(C)(C)c1cc(NC(=O)NCc2ccc(Oc3ccncc3)cc2)on1 [1-(4-(pyridin-4-yloxy)benzyl)-3-(3-t-butylisoxazol-5-yl)urea, reference compound] |  | amelioration of symptoms / improvement in the rectal bleeding score (in words) (DSS-induced colitis): improvement in the score was not observed; rectal bleeding score on Day 32 (0: occult blood-negative, 2: occult blood-positive, 4: apparent bleeding) (DSS-induced colitis): 1.1±0.2
Cc1ccc(-n2nc(C(C)(C)C)cc2NC(=O)NCc2ccccc2Oc2cc(N3CCCC(C(N)=O)C3)ncn2)cc1 (stereo not shown) [Example 82, 1-(6-(2-(3-(5-t-butyl-2-p-tolyl-2H-pyrazol-3-yl)-ureidomethyl)phenoxy)pyrimidin-4-yl)piperidin-3-carboxylic amide] | 6.45 | 
Cc1ccc(-n2nc(C(C)(C)C)cc2NC(=O)NCc2cc(F)cc(C)c2Oc2ccnc(Cl)n2)cc1 [Example 85, 1-(2-(2-chloropyrimidin-4-yloxy)-3-methyl-5-fluorobenzyl)-3-(3-t-butyl-1-p-tolyl-1H-pyrazol-5-yl)urea] | 6.37 | 
Cc1ccc(-n2nc(C(C)(C)C)cc2NC(=O)NCc2ccccc2Oc2ccnc(N3CCC(C(N)=O)CC3)n2)cc1 [Example 14, 1-(4-(2-(((((3-t-butyl-1-p-tolyl-1H-pyrazol-5-yl)amino)carbonyl)amino)methyl)phenoxy)pyrimidin-2-yl)-piperidin-4-carboxylic amide] | 6.34 | 
CC(C)(C)c1cc(NC(=O)NCc2ccc(Oc3ccncc3)cc2)no1 [reference compound] |  | amelioration of symptoms / improvement in the rectal bleeding score (in words) (DSS-induced colitis): improvement in the score was not observed; rectal bleeding score on Day 32 (0: occult blood-negative, 2: occult blood-positive, 4: apparent bleeding) (DSS-induced colitis): 1.3±0.3
CC(=O)N1CCN(c2nccc(Oc3ccccc3CNC(=O)Nc3cc(C(C)(C)C)nn3-c3ccc(C)cc3)n2)CC1 [Example 10, 1-(2-(2-(4-acetylpiperazin-1-yl)pyrimidin-4-yloxy)benzyl)-3-(3-t-butyl-1-p-tolyl-1H-pyrazol-5-yl)urea] | 5.98 | amelioration of symptoms / improvement in the rectal bleeding score (in words) (DSS-induced colitis): marked amelioration of symptoms was observed; rectal bleeding score on Day 32 (0: occult blood-negative, 2: occult blood-positive, 4: apparent bleeding) (DSS-induced colitis): 0.6±0.3

The next lines start with results.

pIC50 [1] | SMILES | other results
6.46 | Cc1ccc(-n2nc(C(C)(C)C)cc2NC(=O)NCc2ccccc2Oc2ccnc(NCCC3CCCN3C)n2)cc1 (stereo not shown) [Example 20, 1-(2-(2-(2-(1-methylpyrrolidin-2-yl)ethylamino)pyrimidin-4-yloxy)benzyl)-3-(3-t-butyl-1-p-tolyl-1H-pyrazol-5-yl)urea] | 
6.60 | Cc1ccc(-n2nc(C(C)(C)C)cc2NC(=O)NCc2ccccc2Oc2ccnc(NCCCN(C)C)n2)cc1 [Example 11, 1-(2-(2-(3-(dimethylamino)propylamino)pyrimidin-4-yloxy)benzyl)-3-(3-t-butyl-1-p-tolyl-1H-pyrazol-5-yl)urea] | 
6.92 | Cc1ccc(-n2nc(C(C)(C)C)cc2NC(=O)NCc2ccccc2Oc2ccnc(NCCCN3CCCC3=O)n2)cc1 [Example 6, 1-(2-(2-(3-(2-oxo-pyrrolidin-1-yl)propylamino)pyrimidin-4-yloxy)benzyl)-3-(3-t-butyl-1-p-tolyl-1H-pyrazol-5-yl)urea] | 
6.57 | COCCN1CCN(c2nccc(Oc3ccccc3CNC(=O)Nc3cc(C(C)(C)C)nn3-c3ccc(C)cc3)n2)CC1 [Example 12, 1-(2-(2-(4-(2-methoxyethyl)piperazin-1-yl)pyrimidin-4-yloxy)benzyl)-3-(3-t-butyl-1-p-tolyl-1H-pyrazol-5-yl)urea] | 
6.64 | Cc1ccc(-n2nc(C(C)(C)C)cc2NC(=O)NCc2cc(F)ccc2Oc2ccnc(N3CCOCC3)n2)cc1 [Example 9, 1-(2-(2-morpholinopyrimidin-4-yloxy)-5-fluorobenzyl)-3-(3-t-butyl-1-p-tolyl-1H-pyrazol-5-yl)urea] | effect on the number of rhythmic bladder contractions [2]: inhibited the rhythmic bladder contractions statistically significantly
6.51 | CCN(CC)CCCNc1nccc(Oc2ccccc2CNC(=O)Nc2cc(C(C)(C)C)nn2-c2ccc(C)cc2)n1 [Example 18, 1-(2-(2-(3-(diethylamino)propylamino)pyrimidin-4-yloxy)benzyl)-3-(3-t-butyl-1-p-tolyl-1H-pyrazol-5-yl)urea] | 
6.53 | Cc1ccc(-n2nc(C(C)(C)C)cc2NC(=O)NCc2ccccc2Oc2cc(C)nc(N3CCOCC3)n2)cc1 [Example 98, 1-(2-(6-methyl-2-morpholinopyrimidin-4-yloxy)benzyl)-3-(3-t-butyl-1-p-tolyl-1H-pyrazol-5-yl)urea] | 
6.53 | Cc1ccc(-n2nc(C(C)(C)C)cc2NC(=O)NCc2ccccc2Oc2ccnc(N3CCN(C)CC3)n2)cc1 [Example 7, 1-(2-(2-(4-methylpiperazin-1-yl)pyrimidin-4-yloxy)benzyl)-3-(3-t-butyl-1-p-tolyl-1H-pyrazol-5-yl)urea] | melting point: 149.5 °C
